Counter-ions that a name gives are not always drawn.
Tests used:
JAK2 tyrosine kinase = target: T1, JAK2 tyrosine kinase (Homo sapiens, UniProt O60674); test: Test 1: inhibitory activity to JAK2 tyrosine kinase (ELISA); type: biochemical; details: 25 μM ATP in substrate solution, 30° C. for 1 hour, n=2
T1 construct: purchased Carnabioscience Co
Procedure, shortened: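 This is an ELISA read at A450 (HRP anti-phosphotyrosine antibody, TMB) of biotin-peptide phosphorylation captured on streptavidin. Enzyme solution was 0.75 nM JAK2, and the substrate solution was 625 nM peptide with 25 μM ATP in Tris pH 7.5 buffer. The reaction ran 1 h at 30 °C with compounds in duplicate, and IC50 was fitted non-linearly.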

JAK3 tyrosine kinase = target: T2, JAK3 tyrosine kinase (Homo sapiens, UniProt P52333); test: Test 1: inhibitory activity to JAK3 tyrosine kinase (ELISA); type: biochemical; details: 25 μM ATP in substrate solution, 30° C. for 1 hour, n=2
T2 construct: purchased Carnabioscience Co
T2 sequence (P52333 1-1124): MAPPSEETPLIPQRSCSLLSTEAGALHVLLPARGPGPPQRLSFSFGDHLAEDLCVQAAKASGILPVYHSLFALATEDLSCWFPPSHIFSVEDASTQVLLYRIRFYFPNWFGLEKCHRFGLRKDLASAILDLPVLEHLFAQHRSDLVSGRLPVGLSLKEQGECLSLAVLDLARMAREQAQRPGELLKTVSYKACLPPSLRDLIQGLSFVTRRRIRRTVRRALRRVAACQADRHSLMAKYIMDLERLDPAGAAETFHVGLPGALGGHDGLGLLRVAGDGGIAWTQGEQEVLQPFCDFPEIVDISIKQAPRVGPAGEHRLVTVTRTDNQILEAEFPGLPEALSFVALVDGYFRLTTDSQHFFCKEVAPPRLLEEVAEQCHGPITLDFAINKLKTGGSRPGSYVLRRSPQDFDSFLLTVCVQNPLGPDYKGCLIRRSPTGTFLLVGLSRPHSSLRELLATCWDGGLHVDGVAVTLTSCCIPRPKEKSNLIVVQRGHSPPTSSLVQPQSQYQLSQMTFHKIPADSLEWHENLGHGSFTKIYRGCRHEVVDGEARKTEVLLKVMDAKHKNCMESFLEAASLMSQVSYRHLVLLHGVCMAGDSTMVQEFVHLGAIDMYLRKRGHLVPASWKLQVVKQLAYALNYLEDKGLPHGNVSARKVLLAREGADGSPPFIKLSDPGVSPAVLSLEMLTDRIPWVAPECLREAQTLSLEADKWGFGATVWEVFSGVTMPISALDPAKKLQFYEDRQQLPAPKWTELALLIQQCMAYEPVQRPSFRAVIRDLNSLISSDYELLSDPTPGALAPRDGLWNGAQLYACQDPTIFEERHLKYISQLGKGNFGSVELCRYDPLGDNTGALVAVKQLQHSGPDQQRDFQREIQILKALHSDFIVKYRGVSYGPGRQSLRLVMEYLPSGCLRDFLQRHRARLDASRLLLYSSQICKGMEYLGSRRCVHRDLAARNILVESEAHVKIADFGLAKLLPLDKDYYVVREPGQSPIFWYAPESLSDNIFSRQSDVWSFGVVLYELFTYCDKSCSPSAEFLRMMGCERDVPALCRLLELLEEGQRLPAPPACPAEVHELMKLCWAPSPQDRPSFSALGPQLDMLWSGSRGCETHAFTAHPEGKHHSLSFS
Procedure, shortened: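 ELISA of JAK3 kinase activity with absorbance read at 450 nm. Compounds were tested from DMSO dilution series at 100-fold the measurement concentrations (1000–0.01 μM), diluted up to 20 times in assay buffer, against a DMSO negative control. IC50 was estimated by non-linear regression of absorbance.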

T1 sequence (O60674 whole entry): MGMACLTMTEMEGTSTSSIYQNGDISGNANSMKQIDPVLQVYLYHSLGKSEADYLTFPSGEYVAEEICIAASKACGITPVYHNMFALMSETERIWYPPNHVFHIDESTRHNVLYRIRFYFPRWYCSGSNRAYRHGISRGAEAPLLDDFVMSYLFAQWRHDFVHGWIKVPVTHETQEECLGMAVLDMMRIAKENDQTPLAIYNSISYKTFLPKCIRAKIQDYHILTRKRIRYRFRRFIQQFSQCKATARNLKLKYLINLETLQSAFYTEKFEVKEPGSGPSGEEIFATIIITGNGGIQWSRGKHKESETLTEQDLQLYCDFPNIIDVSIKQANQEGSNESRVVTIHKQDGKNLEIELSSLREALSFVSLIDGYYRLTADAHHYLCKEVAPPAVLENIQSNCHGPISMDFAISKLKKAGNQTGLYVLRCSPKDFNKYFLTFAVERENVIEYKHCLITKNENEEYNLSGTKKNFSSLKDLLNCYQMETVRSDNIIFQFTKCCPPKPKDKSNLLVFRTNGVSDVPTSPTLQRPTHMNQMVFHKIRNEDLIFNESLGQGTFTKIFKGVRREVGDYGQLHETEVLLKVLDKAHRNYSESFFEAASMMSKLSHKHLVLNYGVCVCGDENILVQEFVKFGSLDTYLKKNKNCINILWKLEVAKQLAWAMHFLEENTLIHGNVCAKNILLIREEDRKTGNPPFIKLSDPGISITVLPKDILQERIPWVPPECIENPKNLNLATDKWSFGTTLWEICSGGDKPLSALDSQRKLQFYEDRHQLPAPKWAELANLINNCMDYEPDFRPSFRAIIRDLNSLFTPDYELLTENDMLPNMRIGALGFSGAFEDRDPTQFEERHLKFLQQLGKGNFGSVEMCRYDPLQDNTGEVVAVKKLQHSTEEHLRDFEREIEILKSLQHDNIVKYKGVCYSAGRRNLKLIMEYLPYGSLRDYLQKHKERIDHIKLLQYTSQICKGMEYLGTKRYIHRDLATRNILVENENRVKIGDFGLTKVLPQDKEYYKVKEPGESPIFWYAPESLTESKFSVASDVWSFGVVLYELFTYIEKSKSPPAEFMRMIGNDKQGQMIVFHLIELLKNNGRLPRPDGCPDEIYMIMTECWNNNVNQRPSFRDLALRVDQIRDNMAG

| SMILES | IC50 (JAK2 tyrosine kinase) | IC50 (JAK3 tyrosine kinase) |
| --- | --- | --- |
| COC1(C(C)C)CN(c2cc(Nc3cnccn3)nc(N[C@@H](C)c3ccc(F)cc3)c2)C1 [Example 212, (S)—N^2-[1-(4-Fluorophenyl)ethyl]-4-(3-isopropyl-3-methoxyazetidin-1-yl)-N^6-(pyrazin-2-yl)pyridine-2,6-diamine hydrochloride] | 15 nM | 160 nM |
| C[C@H](Nc1nc(Nc2cnccn2)cc(N2CC(O)C2)n1)c1ccc(F)cc1 [Example 72, (S)-1-{2-[1-(4-Fluorophenyl)ethylamino]-6-(pyrazin-2-ylamino)pyrimidin-4-yl}azetidin-3-ol hydrochloride] | 0.96 nM | 31 nM |
| C[C@H](Nc1nc(Nc2cnccn2)cc(-c2cccnc2)n1)c1ccc(F)cc1 [Example 13, (S)—N^2-[1-(4-Fluorophenyl)ethyl]-N^4-(pyrazin-2-yl)-6-(pyridin-3-yl)pyrimidine-2,4-diamine] | 1.3 nM | 71 nM |
| C[C@H](Nc1nc(Nc2cnccn2)cc(N2CCCC2)n1)c1ccc(F)cc1 [Example 19, (S)—N^2-[1-(4-Fluorophenyl)ethyl]-N^4-(pyrazin-2-yl)-6-(pyrrolidin-1-yl)pyrimidine-2,4-diamine] | 2.6 nM | 59 nM |
| C[C@H](Nc1nc(Nc2cnccn2)cc(-c2cn[nH]c2)n1)c1ccc(F)cc1 [Example 11, (S)—N^2-[1-(4-Fluorophenyl)ethyl]-N^4-(pyrazin-2-yl)-6-(1H-pyrazol-4-yl)pyrimidine-2,4-diamine hydrochloride] | 0.82 nM | 36 nM |
| C[C@H](Nc1cc(N2CCN(S(C)(=O)=O)CC2)cc(Nc2cnccn2)n1)c1ccc(F)cc1 [Example 124, (S)—N^2-[1-(4-Fluorophenyl)ethyl]-4-[4-(methylsulfonyl)piperazin-1-yl]-N^6-(pyrazin-2-yl)pyridine-2,6-diamine hydrochloride] | 1.3 nM | 66 nM |
| C[C@H](Nc1nc(Nc2cnccn2)cc(-c2ccccn2)n1)c1ccc(F)cc1 [Example 14, (S)—N^2-[1-(4-Fluorophenyl)ethyl]-N^4-(pyrazin-2-yl)-6-(pyridin-2-yl)pyrimidine-2,4-diamine] | 1.9 nM | 120 nM |
| C[C@H](Nc1nc(Nc2cnccn2)cc(N2CC(CN)C2)n1)c1ccc(F)cc1 [Example 230, (S)-6-[3-(Aminomethyl)azetidin-1-yl]-N^2-[1-(4-fluorophenyl)ethyl]-N^4-(pyrazin-2-yl)pyrimidine-2,4-diamine] | 1.2 nM | 63 nM |
| C[C@H](Nc1nc(Nc2cnccn2)cc(N2CC(C(=O)NC3CC3)C2)n1)c1ccc(F)cc1 [Example 197, (S)—N-(Cyclopropyl)-1-{2-[1-(4-fluorophenyl)ethylamino]-6-(pyrazin-2-ylamino)pyrimidin-4-yl}azetidine-3-carboxamide] | 1.6 nM | 58 nM |
| COCCNC(=O)C1CN(c2cc(Nc3cnccn3)nc(N[C@@H](C)c3ccc(F)cc3)n2)C1 [Example 194, (S)-1-{2-[1-(4-Fluorophenyl)ethylamino]-6-(pyrazin-2-ylamino)pyrimidin-4-yl}-N-(2-methoxyethyl) azetidine-3-carboxamide] | 0.79 nM | 84 nM |
| C[C@H](Nc1nc(Nc2cnccn2)cc(N2CC(C(=O)N3CCCC3)C2)n1)c1ccc(F)cc1 [Example 193, (S)-(1-{2-[1-(4-Fluorophenyl)ethylamino]-6-(pyrazin-2-ylamino)pyrimidin-4-yl}azetidin-3-yl)(pyrrolidin-1-yl)methanone] | 0.8 nM | 35 nM |
| C[C@H](Nc1cc(-c2cnn(CC3CC3)c2)cc(Nc2cnccn2)n1)c1ccc(F)cc1 [Example 48, (S)-4-[1-(Cyclopropylmethyl)-1H-pyrazol-4-yl]-N^2-[1-(4-fluorophenyl)ethyl]-N^6-(pyrazin-2-yl)pyridine-2,6-diamine] | 6 nM | 140 nM |

— patent publication US8586591B2, “Aminopyrazine derivative and medicine” (Nippon Shinyaku Co., Ltd., priority 2009, dated 2013)
